Experimental findings from PubChem BioAssay (NCI) are described below.

Among the test systems are CAKI-1 renal; HCT-15 colon; PC-3 prostate; RPMI-8226 leukemia; RXF 393 renal; SF-268 CNS; SK-MEL-2 melanoma; SK-MEL-28 melanoma; SNB-19 CNS; SW-620 colon.
What all share (assay): inhibition of tumour cell growth, NCI panel, 48 h

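Dose response: 5 concentrations. Exposure: 48 h. Format: 96-well plates. Endpoint: linear interpolation; highest concentration if not reached. GI50 = concentration required for 50% inhibition of growth. The concentration for full growth arrest is given as TGI.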 Bounds are passed on as bounds.

Consider `Nc1nc(N)c2c(n1)NC(c1ccc(F)cc1)C1CCc3ccccc3C1=N2` (stereo not given), for which the GI50 in the test on CAKI-1 renal was 2.72 µM; with HCT-15 colon it was 3.99 µM; in the test on PC-3 prostate it was 2.03 µM; in the test with RPMI-8226 leukemia it was 1.81 µM; in the test with RXF 393 renal it was 5.48 µM; in the test on SF-268 CNS it was 8.64 µM. In addition, the GI50 was 5.73 µM in the test on SK-MEL-2 melanoma, 7.16 µM in the test on SK-MEL-28 melanoma, 12 µM in the test on SNB-19 CNS and 4.87 µM in the test on SW-620 colon. Further, the TGI in the test with CAKI-1 renal is 16.2 µM; in the test with HCT-15 colon it was 16.5 µM; with PC-3 prostate it was 9.31 µM; in the test on RPMI-8226 leukemia it was 5.11 µM; in the test with RXF 393 renal, 20 µM; in the test with SF-268 CNS, 23.7 µM. Besides, the TGI in the test with SK-MEL-2 melanoma was determined as 19.6 µM; in the test with SK-MEL-28 melanoma, 19.7 µM; in the test on SNB-19 CNS it was 24.8 µM; in the test with SW-620 colon it was 17.4 µM.
For `CN1C(=O)C(CC(=O)O)NC1=S` (stereo not given), the TGI in the test with CAKI-1 renal, in the test on HCT-15 colon, in the test on PC-3 prostate, in the test with RPMI-8226 leukemia, with RXF 393 renal and in the test on SF-268 CNS was more than 100 µM throughout. Further, the TGI with SK-MEL-2 melanoma, in the test on SK-MEL-28 melanoma, with SNB-19 CNS and in the test with SW-620 colon was more than 100 µM each time.
`Oc1ccccc1C=Nc1nc(SCc2ccccc2)nc2[nH]ncc12`: the GI50 in the test with CAKI-1 renal is 47.6 µM; in the test with HCT-15 colon, more than 100 µM; with PC-3 prostate it was 37.2 µM; in the test on RPMI-8226 leukemia, 30.8 µM; in the test with RXF 393 renal, 32.5 µM; with SF-268 CNS, 28.2 µM. The GI50 in the test with SK-MEL-2 melanoma was more than 100 µM; in the test on SK-MEL-28 melanoma, 82.8 µM; in the test with SNB-19 CNS, 49.5 µM; in the test with SW-620 colon it was 40 µM. The TGI in the test on CAKI-1 renal, with HCT-15 colon, with PC-3 prostate, with RPMI-8226 leukemia, with RXF 393 renal and with SF-268 CNS was more than 100 µM throughout. Also, the TGI with SK-MEL-2 melanoma, in the test on SK-MEL-28 melanoma, in the test on SNB-19 CNS and in the test on SW-620 colon was more than 100 µM in each case.
Take `CC(NCCC(=O)N(CCC(=O)N(CCC(=O)N(CCC(=O)N(CCC(=O)N(CCC(=O)N(CCC(=O)N(CCC(=O)N(CCC(=O)N(CCC(=O)O)[C@H](C)c1ccccc1)[C@H](C)c1ccccc1)[C@H](C)c1ccccc1)[C@H](C)c1ccccc1)[C@H](C)c1ccccc1)[C@H](C)c1ccccc1)[C@H](C)c1ccccc1)[C@H](C)c1ccccc1)[C@H](C)c1ccccc1)c1ccccc1` (stereo not given in full): the GI50 was 3.49 µM in the test on CAKI-1 renal; 3.22 µM in the test with HCT-15 colon; 2.66 µM in the test on PC-3 prostate; 1.1 µM in the test with RPMI-8226 leukemia; 1.47 µM with RXF 393 renal; 2.45 µM with SF-268 CNS. The GI50 was 1.9 µM in the test with SK-MEL-2 melanoma, 1.5 µM with SK-MEL-28 melanoma, more than 19.1 µM in the test on SNB-19 CNS and 2.91 µM with SW-620 colon. Besides, the TGI with CAKI-1 renal is more than 45.1 µM; in the test on HCT-15 colon, more than 27 µM; in the test with PC-3 prostate, more than 75 µM; in the test with RPMI-8226 leukemia it was 4.08 µM; in the test with RXF 393 renal it was 3.78 µM; in the test on SF-268 CNS it was more than 38.7 µM. For the same molecule, the TGI in the test on SK-MEL-2 melanoma is 7.97 µM; in the test with SK-MEL-28 melanoma, 3.63 µM; in the test on SNB-19 CNS, more than 75 µM; in the test with SW-620 colon, more than 35 µM.
For the molecule `CNCCNc1c2c(c(NCCNC)c3[nH]ccc13)C(=O)c1ccccc1C2=O`, the GI50 is 0.278 µM with CAKI-1 renal; 0.115 µM in the test on HCT-15 colon; 0.0593 µM with PC-3 prostate; 0.051 µM with RPMI-8226 leukemia; 0.214 µM in the test with RXF 393 renal; 0.222 µM in the test on SF-268 CNS. Also, the GI50 with SK-MEL-2 melanoma was 0.581 µM; in the test on SK-MEL-28 melanoma, 4.18 µM; with SNB-19 CNS, 4.58 µM; with SW-620 colon it was 0.299 µM. For the same molecule, the TGI in the test with CAKI-1 renal came to 1.15 µM; with HCT-15 colon, 0.761 µM; in the test with PC-3 prostate, 0.309 µM; in the test on RPMI-8226 leukemia it was 0.214 µM; in the test on RXF 393 renal, 0.752 µM; in the test with SF-268 CNS, 0.876 µM. The TGI with SK-MEL-2 melanoma turned out to be 2.55 µM; in the test with SK-MEL-28 melanoma it was 11.1 µM; in the test with SNB-19 CNS, 11.5 µM; with SW-620 colon, 0.804 µM.
On to `O=C(O)C1C(C(=O)O)C23CC2(C(=O)O)C2(C(=O)O)CCC3=C3CCCC312` (stereo not given), for which the TGI with CAKI-1 renal is 81.9 µM; with HCT-15 colon, more than 100 µM; with PC-3 prostate it was 31.2 µM; in the test with RPMI-8226 leukemia, 37.9 µM; in the test on RXF 393 renal, 37.7 µM; with SF-268 CNS, 22.5 µM. Besides, the TGI with SK-MEL-2 melanoma is 38.8 µM; with SK-MEL-28 melanoma it was 29.9 µM; in the test on SNB-19 CNS, 73.6 µM; with SW-620 colon, more than 100 µM.
`COc1cc(NC(=O)CSc2nc3ccc(C)cc3c(=O)n2Cc2ccccc2)cc(OC)c1OC`: the GI50 in the test with CAKI-1 renal was 5.08 µM; in the test on HCT-15 colon it was more than 100 µM; with PC-3 prostate it was 6.88 µM; in the test on RPMI-8226 leukemia it was 69.3 µM; with RXF 393 renal it was 2.24 µM; with SF-268 CNS, 6.91 µM. The GI50 was 3.38 µM in the test on SK-MEL-2 melanoma, 7.04 µM with SK-MEL-28 melanoma, 21.4 µM with SNB-19 CNS and more than 100 µM in the test with SW-620 colon. Besides, the TGI in the test with CAKI-1 renal was more than 100 µM; with HCT-15 colon, more than 100 µM; in the test with PC-3 prostate, more than 100 µM; in the test with RPMI-8226 leukemia, more than 100 µM; in the test on RXF 393 renal, 8.23 µM; in the test with SF-268 CNS, more than 100 µM. Also, the TGI was 10.6 µM in the test on SK-MEL-2 melanoma, 59.7 µM in the test on SK-MEL-28 melanoma, more than 100 µM in the test on SNB-19 CNS and more than 100 µM with SW-620 colon.
Consider `CN(C)CCCN1c2ccccc2C(C)(C)c2ccccc21`, for which the TGI with CAKI-1 renal was 25.5 µM; in the test with HCT-15 colon it was 29.8 µM; in the test on PC-3 prostate it was 26.6 µM; with RPMI-8226 leukemia, 28.5 µM; in the test with RXF 393 renal it was 26.8 µM; in the test on SF-268 CNS, 27.2 µM. Also, the TGI in the test with SK-MEL-2 melanoma came to 30.1 µM; in the test with SK-MEL-28 melanoma, 31.4 µM; with SNB-19 CNS it was 28.8 µM; in the test with SW-620 colon, 52.4 µM.
